Source: EP1501797B1, “3-(SUBSTITUTED AMINO)-1H-INDOLE-2-CARBOXYLIC ACID ESTER AND 3-(SUBSTITUTED AMINO)-BENZO[B]THIOPHENE-2-CARBOXYLIC ACID ESTER DERIVATIVES AS INTERLEUKIN-4 GENE EXPRESSION INHIBITORS” (Aventis Pharmaceuticals Inc., priority 2002, dated 2003)

What was measured:
Type in all cases: cell-based
IFN-γ = assay: Human primary Th1 (NYTh1) cells, IFN-γ ELISA; settings: data from 8 different experiments combined
Protocol: (§1) Briefly, CD4^+CD45RA^+ T cells, isolated from donor peripheral blood mononuclear cells of healthy donors, are educated in the presence of anti-CD3/CD28 antibodies and various growth factors to obtain either a Thl-like or Th2-like phenotypes as determined by the known cytokine profiles of these two cell types.
Generation of Th1/Th2 cells: Twenty four well plates are coated with 300 µL anti-CD3 Ab (10 µg/ml, in PBS 1-2 h at 37°C or overnight at 4°C), and washed two times with PBS. CD4^+/CD45RA^+ cells at a density of 10^6/ml in RPMI, is prepared and added to RPMI medium containing 10% Hyclone serum/ glutamine and 1-2 µg/ml anti-CD28 Ab. The cells are split in two aliquots. […] The degree of polarization is determined by intracellular staining of cells with anti-IFN-γ and anti-IL-4 antibodies from Pharmingen, and using flow cytometry from Becton Dickinson (BD), according to manufacturers description. […] For compound testing, large quantities of Th1 and Th2 cells derived from a given donor (NYTh1 and NYTh2) were expanded and frozen as aliquots in liquid nitrogen. […]
Re-stimulation by allogeneic cells: Human PBMCs, to be used as alloantigens, are isolated from freshly drawn blood by Ficoll separation. […] Cells are counted and diluted to a final concentration of 2 x 10^6/ml in medium containing 10 µg/ml PHA and 200 units/ml IL-2. […]

[1] = Human primary Th2 cells, proliferation (viability, MTS assay); settings: human, th2 cells, MTS, read-out: Proliferation (% control) mean
Protocol: as §1
(§2) Peripheral blood mononuclear cells (PBMC) are prepared from human blood by Ficoll-Hypacque (Pharmacia). The cells are washed two times in Hanks balanced salt solution (HBSS) and counted.
(§3) Naive T cells (CD4^+/CD45RA ) are prepared by negative selection method using following antibodies and Dynabeads: anti-CD8, anti-HLA-DR, (where HLA means human leucocyte antigen) anti-CD14, anti-CD16, anti-CD19, anti-CD45RO antibodies (all from R&D Systems, 1-2 µg/ml) are added to the cells, and the cells are kept on ice for 30 min. The cells are washed two times in HBSS, and goat anti- mouse Ig-beads, (bead:target ratio, 5:1) are added. The cells and beads are slowly rotated at 4°C for 20 min. (following the protocol supplied from Dynal). The supernatant is removed and fresh goat anti-mouse Ig-beads are added to the supernatant, which is slowly rotated at 4°C for 20 min. The cells are counted and phenotypically characterized by flow cytometric analysis.
(§4) CD4^+/CD45RA^+ cells at a density of 10^6/ml in RPMI, is prepared and added to RPMI medium containing 10% Hyclone serum/ glutamine and 1-2 µg/ml anti-CD28 Ab. The cells are split in two aliquots. For Th1 cells: anti-IL-4 Ab (1-2 µg/ml), IFN-γ (1 µg/ml, or 5000 units/ml) are added to the wells. For Th2 cells: IL-4 (100-200 ng/ml), anti-IFN-γ neutralizing Ab (1-2 µg/ml), anti-IL-12 neutralizing Ab (1-2 µg/ml) are added into the wells. […] The cells are transferred to fresh wells and grown in 200 units/ml IL-2 for 2 weeks by feeding them every other day with IL-2 containing medium and splitting the cultures 1:2 or 1:3 as needed. The degree of polarization is determined by intracellular staining of cells with anti-IFN-γ and anti-IL-4 antibodies from Pharmingen, and using flow cytometry from Becton Dickinson (BD), according to manufacturers description. The cells are stimulated with PHA and alloantigens at day 14 and 28 as described below. Eight days after the second allostimulation the cells can be used for compound screening or frozen for future use. For compound testing, large quantities of Th1 and Th2 cells derived from a given donor (NYTh1 and NYTh2) were expanded and frozen as aliquots in liquid nitrogen. The cells are thawed and cultured as and when needed. The thawed cells are stimulated with alloantigen/PHA combination. The cells are used for compound screening after 8-10 days in culture.
(§5) Re-stimulation by allogeneic cells: Human PBMCs, to be used as alloantigens, are isolated from freshly drawn blood by Ficoll separation. […] Cells are counted and diluted to a final concentration of 2 x 10^6/ml in medium containing 10 µg/ml PHA and 200 units/ml IL-2.
(§6) Ninetysix well Falcon tissue culture plates (Fisher Scientific) are coated with 100 microliters per well of 10 µg/ml anti-CD3 (PharMingen) antibody in phosphate buffered saline (PBS) and stored at 4°C one day before the experiment.
(§7) On the day of assay, anti-CD3 antibody coated plates are washed with PBS once to remove all soluble anti-CD3 antibody. […] All compounds and controls are assayed in triplicates.

Human Th2 cells = assay: as above; settings: Human primary Th2 cells; combined data from 10 different experiments; read-out: Prol. IC50
Protocol: as §1, §2, §3, §4, §5, §6, §7

## O=C(O)c1[nH]c2ccccc2c1Nc1ccncc1 [Example 28, 3-(4-Pyridinylamino)-1H-indole-2-carboxylic acid]
IFN-γ
  IC50: > 10 µM
[1]; 0.01 µM
  viability at 0.01 µM: 89.5%
[1]; 0.03 µM
  viability at 0.03 µM: 85%
[1]; 0.1 µM
  viability at 0.1 µM: 86.7%
[1]; 0.3 µM
  viability at 0.3 µM: 80.6%
[1]; 1 µM
  viability at 1 µM: 77.2%
[1]; 3 µM
  viability at 3 µM: 72%
[1]; 10 µM
  viability at 10 µM: 71.5%
Human Th2 cells
  IC50: > 10 µM
